Reference: patent US8927254B2 (priority 2010, dated 2015)
In brackets after ≈: the same amount, converted by molar mass. Where two headings read alike, the source gives them in different places.

What was measured:
[1] = system: P. furiosus trp deletion strains; format: cell-based, Pyrococcus furiosus
[2] = system: P. furiosus; experiment: microbe, parasite or virus in culture; format: cell-based; settings: Pyrococcus furiosus

Compound | sensitivity to 5-FAA ([1]; trpAB deletion strain, tight tryptophan auxotroph) | sensitivity to 5-FAA ([1]; trpE or trpD deletion strains, leaky tryptophan auxotrophs) | sensitivity to 5-FAA ([1]; trpF (PF1707) pop-out deletion strain, leaky auxotroph) | MIC [2] [mM]
Nc1ccc(F)cc1C(=O)O [5-FAA, 5-fluoroanthranilic acid] | not sensitive | not sensitive | not sensitive | –
O=C(O)c1[nH]c(=O)[nH]c(=O)c1F [5-FOA, 5-fluoroorotic acid] | – | – | – | 8 (≈ 1390 µg/mL)
CCC(C)(C)C(=O)O[C@H]1C[C@@H](C)C=C2C=C[C@H](C)[C@H](CC[C@@H]3C[C@@H](O)CC(=O)O3)[C@H]21 [simvastatin] | – | – | – | 0.01 to 0.024 (≈ 4.19 to 10 µg/mL)
